The structures appear in SMILES notation. Active and inactive are the calls of the source. No cut-off for these calls is given here.

The values that follow come from ChEMBL document CHEMBL4184140, “Expanding the tetrahydroquinoline pharmacophore” (Bioorg Med Chem Lett, 2017).

The assay has as its system Mycobacterium tuberculosis variant bovis. The assay is described as follows: Antitubercular activity against Mycobacterium bovis. The assay is classed as functional, organism-based.
As for `C=CCO[C@@H]1[C@@H]2c3ccccc3N(C(C)=O)[C@H](c3ccc(Cl)cc3)[C@@H]2C[C@H]1N=[N+]=[N-]`, the outcome was inactive.

On to `O[C@@H]1[C@@H]2c3ccccc3N[C@H](c3ccc(Cl)cc3)[C@@H]2C[C@@H]1O`, for which the outcome was inactive.

For the compound `CC(=O)N1c2ccccc2[C@@H]2[C@@H](C[C@@H]3O[C@H]23)[C@H]1c1ccccc1`, the result was inactive.

Regarding `Fc1ccc2c(c1)N[C@H](c1ccccc1)[C@@H]1CC=C[C@H]21`, the outcome was inactive. As for `CC(=O)N1c2ccccc2[C@H]2C=CC[C@H]2[C@H]1c1ccccc1`, the entry is “inactive”; as for `C=CCO[C@H]1C(n2cc(-c3ccccc3)nn2)C[C@@H]2[C@H]1c1ccccc1N(C(C)=O)[C@@H]2c1ccccc1` (single isomer, unassigned), “inactive”. Consider `CC(=O)N1c2ccccc2[C@H]2C=CC[C@H]2[C@H]1c1cccc(Br)c1`, for which the result was inactive. Consider `O[C@@H]1[C@@H]2c3ccccc3N[C@H](c3ccccc3)[C@@H]2C[C@@H]1O`, for which the result was inactive.

For the compound `CC(=O)N1c2ccccc2[C@H]2C=CC[C@H]2[C@H]1c1ccc(Cl)cc1`, the outcome was inactive. With `CC(=O)N1c2ccccc2[C@H]2[C@@H](O)[C@H](N=[N+]=[N-])C[C@H]2[C@H]1c1ccc(Cl)cc1`, the outcome was inactive.

`Brc1ccc2c(c1)[C@H]1C=CC[C@H]1[C@@H](c1ccccc1)N2`: the result was inactive. In the case of `C=CCO[C@@H]1[C@@H]2c3ccccc3N(C(C)=O)[C@H](c3ccccc3)[C@@H]2C[C@H]1N=[N+]=[N-]`, the outcome was inactive. As to `O=[N+]([O-])c1ccc2c(c1)N[C@H](c1ccccc1)[C@@H]1CC=C[C@H]21`, the result was inactive. As for `CC(=O)N1c2ccccc2[C@H]2[C@@H](O)[C@@H](O)C[C@H]2[C@H]1c1ccccc1`, the entry is “inactive”; as for `Cc1ccccc1[C@H]1Nc2ccccc2[C@H]2C=CC[C@H]21`, “inactive”; as for `C1=C[C@@H]2c3ccccc3N[C@H](c3ccccc3)[C@@H]2C1`, “inactive”. Consider `O[C@@H]1[C@@H]2c3ccc(F)cc3N[C@H](c3ccccc3)[C@@H]2C[C@@H]1O`, for which the outcome was inactive. On to `CC(=O)N1c2ccc(Br)cc2[C@H]2C=CC[C@H]2[C@H]1c1ccccc1`, for which the outcome was inactive.

In the case of `CC(=O)N1c2ccccc2[C@@H]2[C@@H](C[C@@H]3O[C@H]23)[C@H]1c1ccc(Cl)cc1`, the result was inactive.

Turning to `CC(=O)N1c2ccccc2[C@H]2C=CC[C@H]2[C@H]1c1ccccc1C`, the outcome was inactive. Consider `Brc1cccc([C@H]2Nc3ccccc3[C@H]3C=CC[C@H]32)c1`, for which the outcome was inactive.

On to `CC(=O)N1c2ccccc2[C@@H]2[C@@H](C[C@@H]3O[C@H]23)[C@H]1c1cccc(Br)c1`, for which the outcome was inactive. As for `CC(=O)N1c2ccccc2[C@H]2[C@@H](O)[C@H](N=[N+]=[N-])C[C@H]2[C@H]1c1ccccc1`, the result was inactive. On to `CC(=O)N1c2cc([N+](=O)[O-])ccc2[C@H]2C=CC[C@H]2[C@H]1c1ccccc1`, for which the result was inactive. As for `CC(=O)N1c2cc([N+](=O)[O-])ccc2[C@@H]2[C@@H](C[C@@H]3O[C@H]23)[C@H]1c1ccccc1`, the result was inactive. Then `O[C@@H]1[C@@H]2c3cc(Br)ccc3N[C@H](c3ccccc3)[C@@H]2C[C@@H]1O`, with “inactive”. As for `C=CCO[C@@H]1[C@@H]2c3ccccc3N(C(C)=O)[C@H](c3cccc(Br)c3)[C@@H]2C[C@H]1N=[N+]=[N-]`, the entry is “inactive”. As to `CC(=O)N1c2ccccc2[C@H]2[C@@H](O)[C@H](N=[N+]=[N-])C[C@H]2[C@H]1c1cccc(Br)c1`, the outcome was inactive. In the case of `Clc1ccc([C@H]2Nc3ccccc3[C@H]3C=CC[C@H]32)cc1`, the result was inactive. Turning to `Cc1ccccc1[C@H]1Nc2ccccc2[C@H]2[C@@H](O)[C@@H](O)C[C@H]21`, the result was inactive. Regarding `CC(=O)N1c2cc([N+](=O)[O-])ccc2[C@H]2[C@@H](O)[C@H](N=[N+]=[N-])C[C@H]2[C@H]1c1ccccc1`, the outcome was inactive. As for `O[C@@H]1[C@@H]2c3ccccc3N[C@H](c3cccc(Br)c3)[C@@H]2C[C@@H]1O`, the entry is “inactive”. For the compound `COC(=O)C[C@@H]1[C@H](C(=O)OC)c2ccccc2N(C(C)=O)[C@@H]1c1ccccc1`, the result was inactive.

Consider `O=[N+]([O-])c1ccc2c(c1)N[C@H](c1ccccc1)[C@@H]1C[C@H](O)[C@H](O)[C@H]21`, for which the result was inactive.
